{
  "source": "patent US7629341B2",
  "about": "“Human ADAM-10 inhibitors” (Symphony Evolution, Inc., priority 2003, dated 2009)",
  "key": {"[1]": {"molecular_target": "MMP-3 (Stromelysin-1) (Homo sapiens, UniProt P08254)", "sequence (P08254 100-477, species assumed)": "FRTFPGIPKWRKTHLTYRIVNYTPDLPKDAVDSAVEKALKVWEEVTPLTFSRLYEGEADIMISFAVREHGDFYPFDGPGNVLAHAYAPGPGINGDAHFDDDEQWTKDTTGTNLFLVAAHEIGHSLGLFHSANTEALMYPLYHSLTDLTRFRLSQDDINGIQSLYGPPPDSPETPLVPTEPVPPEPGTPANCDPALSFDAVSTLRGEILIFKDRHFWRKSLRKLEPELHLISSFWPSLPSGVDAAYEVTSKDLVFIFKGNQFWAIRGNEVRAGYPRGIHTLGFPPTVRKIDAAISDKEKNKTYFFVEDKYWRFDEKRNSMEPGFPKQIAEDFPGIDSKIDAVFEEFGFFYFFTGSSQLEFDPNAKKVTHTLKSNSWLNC", "test": "In vitro metalloprotease inhibition, MMP-3", "type": "biochemical", "excerpt": "(§1) Blank cells indicate lack of data only."}, "[2]": {"molecular_target": "T1, ADAM-10 (UniProt O14672)", "T1 sequence (O14672 1-748)": "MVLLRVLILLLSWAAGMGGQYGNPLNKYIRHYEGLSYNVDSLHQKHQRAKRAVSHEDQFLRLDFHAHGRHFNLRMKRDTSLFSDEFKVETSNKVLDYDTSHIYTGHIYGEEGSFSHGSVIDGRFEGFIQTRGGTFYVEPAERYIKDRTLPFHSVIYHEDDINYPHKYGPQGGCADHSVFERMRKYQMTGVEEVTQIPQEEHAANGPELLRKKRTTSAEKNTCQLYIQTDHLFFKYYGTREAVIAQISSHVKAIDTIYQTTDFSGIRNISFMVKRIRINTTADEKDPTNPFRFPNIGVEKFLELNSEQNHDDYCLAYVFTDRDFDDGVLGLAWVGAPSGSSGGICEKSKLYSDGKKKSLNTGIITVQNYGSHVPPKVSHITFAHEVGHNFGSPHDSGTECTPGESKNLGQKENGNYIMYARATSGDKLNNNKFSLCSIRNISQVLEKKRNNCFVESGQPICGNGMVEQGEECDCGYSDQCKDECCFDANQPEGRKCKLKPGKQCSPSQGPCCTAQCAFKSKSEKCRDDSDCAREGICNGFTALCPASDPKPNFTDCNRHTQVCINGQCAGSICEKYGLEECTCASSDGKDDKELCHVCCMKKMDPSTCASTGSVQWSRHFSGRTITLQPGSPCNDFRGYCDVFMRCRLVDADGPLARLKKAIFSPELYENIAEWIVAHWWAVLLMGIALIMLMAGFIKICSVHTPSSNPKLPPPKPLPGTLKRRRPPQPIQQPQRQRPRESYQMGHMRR", "test": "ADAM-10 enzyme assay, cleavage of a fluorogenic 10-residue peptide", "type": "biochemical, mouse or human (mADAM-10 or hADAM-10)", "details": "in vitro", "experimental": "mADAM-10 or hADAM-10 activity was measured as the ability to cleave a 10-residue peptide (DABCYL-Leu-Leu-Ala-Gln-Lys-*-LeuArg-Ser-Ser-Arg-EDANS). […] Enzyme was diluted to a final active concentration of 5 nM in Buffer A (50 mM HEPES 8.0, 100 mM NaCl, 1 mM CaCl2 and 0.01% NP-40). Serial dilutions for compounds were performed ranging from 100 μM to 0.5 nM using a Beckman Biomek 2000 in polypropylene plates (Greiner). […] This reaction was incubated for 16 hr at RT and fluorescence was read using identical conditions."}, "[3]": {"molecular_target": "T2, MMP-1 (Fibroblast collagenase) (Homo sapiens, UniProt P03956)", "T2 sequence (P03956 100-469)": "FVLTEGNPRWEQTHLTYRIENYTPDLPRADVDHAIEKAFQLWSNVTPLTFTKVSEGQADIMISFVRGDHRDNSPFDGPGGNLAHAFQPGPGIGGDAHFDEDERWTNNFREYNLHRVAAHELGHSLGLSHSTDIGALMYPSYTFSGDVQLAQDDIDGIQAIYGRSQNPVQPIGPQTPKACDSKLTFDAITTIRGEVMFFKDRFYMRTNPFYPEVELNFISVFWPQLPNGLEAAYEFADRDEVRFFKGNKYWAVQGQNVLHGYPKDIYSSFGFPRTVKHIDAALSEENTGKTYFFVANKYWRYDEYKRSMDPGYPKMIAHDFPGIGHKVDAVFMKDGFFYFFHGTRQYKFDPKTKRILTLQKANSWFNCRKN", "test": "In vitro metalloprotease inhibition, MMP-1", "type": "biochemical", "excerpt": "as §1"}, "[4]": {"molecular_target": "MMP-13 (collagenase-3) (Homo sapiens, UniProt P45452)", "test": "In vitro metalloprotease inhibition, MMP-13", "type": "biochemical"}, "[5]": {"molecular_target": "TACE (TNF-alpha converting enzyme, ADAM-17) (Homo sapiens, UniProt P78536)", "sequence (P78536 215-824)": "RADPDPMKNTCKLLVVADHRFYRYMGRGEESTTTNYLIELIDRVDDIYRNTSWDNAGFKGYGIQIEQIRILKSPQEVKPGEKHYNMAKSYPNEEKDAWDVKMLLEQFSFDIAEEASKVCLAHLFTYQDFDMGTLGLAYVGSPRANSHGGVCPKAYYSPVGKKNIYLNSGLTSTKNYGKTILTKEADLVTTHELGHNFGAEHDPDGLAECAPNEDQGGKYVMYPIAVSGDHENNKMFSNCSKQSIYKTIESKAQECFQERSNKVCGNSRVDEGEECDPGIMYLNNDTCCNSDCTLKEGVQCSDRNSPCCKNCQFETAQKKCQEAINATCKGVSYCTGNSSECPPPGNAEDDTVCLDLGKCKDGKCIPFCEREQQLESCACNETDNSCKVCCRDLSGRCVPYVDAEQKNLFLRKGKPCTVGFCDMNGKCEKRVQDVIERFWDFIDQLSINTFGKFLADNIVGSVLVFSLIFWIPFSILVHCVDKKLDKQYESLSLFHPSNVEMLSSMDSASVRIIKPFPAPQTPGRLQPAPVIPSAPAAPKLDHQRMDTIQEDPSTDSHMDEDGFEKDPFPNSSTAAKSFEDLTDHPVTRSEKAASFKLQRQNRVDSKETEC", "test": "In vitro metalloprotease inhibition, TACE", "type": "biochemical", "excerpt": "as §1"}, "[6]": {"molecular_target": "T3, MMP-2 (72 kDa gelatinase, gelatinase A) (Homo sapiens, UniProt P08253)", "T3 sequence (P08253 110-660)": "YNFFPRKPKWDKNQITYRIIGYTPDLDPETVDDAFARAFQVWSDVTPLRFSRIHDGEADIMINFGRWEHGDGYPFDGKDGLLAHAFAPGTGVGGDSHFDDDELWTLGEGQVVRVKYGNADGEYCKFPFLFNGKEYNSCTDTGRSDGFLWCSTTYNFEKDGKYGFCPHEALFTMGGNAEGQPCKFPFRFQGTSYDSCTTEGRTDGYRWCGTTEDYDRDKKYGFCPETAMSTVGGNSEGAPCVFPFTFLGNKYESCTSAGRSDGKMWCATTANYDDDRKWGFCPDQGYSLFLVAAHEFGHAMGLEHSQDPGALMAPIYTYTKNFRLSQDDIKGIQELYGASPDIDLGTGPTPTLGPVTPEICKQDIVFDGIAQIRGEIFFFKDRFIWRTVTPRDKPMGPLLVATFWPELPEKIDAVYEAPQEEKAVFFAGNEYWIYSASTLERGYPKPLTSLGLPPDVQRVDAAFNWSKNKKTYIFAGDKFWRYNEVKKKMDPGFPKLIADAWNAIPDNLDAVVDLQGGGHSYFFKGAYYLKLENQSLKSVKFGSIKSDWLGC", "test": "In vitro metalloprotease inhibition, MMP-2", "type": "biochemical"}, "[7]": {"molecular_target": "MMP-9 (92 kDa gelatinase, gelatinase B) (Homo sapiens, UniProt P14780)", "sequence (P14780 94-707, species assumed)": "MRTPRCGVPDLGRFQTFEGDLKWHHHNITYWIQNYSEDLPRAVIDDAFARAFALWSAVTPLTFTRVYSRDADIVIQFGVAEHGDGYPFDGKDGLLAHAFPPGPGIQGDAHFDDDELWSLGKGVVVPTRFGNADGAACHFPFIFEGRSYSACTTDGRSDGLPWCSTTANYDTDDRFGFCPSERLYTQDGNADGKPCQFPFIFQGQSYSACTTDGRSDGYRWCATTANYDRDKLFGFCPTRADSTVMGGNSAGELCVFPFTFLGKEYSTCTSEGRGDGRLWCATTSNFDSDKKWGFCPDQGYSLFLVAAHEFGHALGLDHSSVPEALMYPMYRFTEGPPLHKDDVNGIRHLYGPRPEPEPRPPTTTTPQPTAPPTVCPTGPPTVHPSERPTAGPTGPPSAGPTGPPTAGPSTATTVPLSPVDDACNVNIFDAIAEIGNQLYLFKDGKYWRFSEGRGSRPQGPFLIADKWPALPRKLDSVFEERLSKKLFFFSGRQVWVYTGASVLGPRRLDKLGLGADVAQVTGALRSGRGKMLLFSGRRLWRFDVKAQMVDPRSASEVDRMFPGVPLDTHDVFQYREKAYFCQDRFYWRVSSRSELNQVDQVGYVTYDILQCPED", "test": "In vitro metalloprotease inhibition, MMP-9", "type": "biochemical"}, "[8]": {"molecular_target": "MMP-8 (Neutrophil collagenase) (Homo sapiens, UniProt P22894)", "sequence (P22894 101-467, species assumed)": "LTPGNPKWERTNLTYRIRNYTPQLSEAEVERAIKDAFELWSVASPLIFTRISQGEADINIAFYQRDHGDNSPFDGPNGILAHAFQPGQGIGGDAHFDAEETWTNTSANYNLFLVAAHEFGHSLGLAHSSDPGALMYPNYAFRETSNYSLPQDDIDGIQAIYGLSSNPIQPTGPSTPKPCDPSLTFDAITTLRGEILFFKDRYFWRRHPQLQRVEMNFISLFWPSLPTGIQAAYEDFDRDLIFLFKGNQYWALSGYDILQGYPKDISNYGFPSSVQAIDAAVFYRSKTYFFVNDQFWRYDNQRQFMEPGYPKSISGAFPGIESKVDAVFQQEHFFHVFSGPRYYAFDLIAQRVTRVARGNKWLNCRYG", "test": "In vitro metalloprotease inhibition, MMP-8", "type": "biochemical"}},
  "data": [
    {"smiles": "O=C(NO)[C@H]1CN(S(=O)(=O)NC(=O)N2CCOCC2)CCN1S(=O)(=O)c1cc(F)c(Oc2ccc(Cl)cc2)c(F)c1", "note": "[Entry 38]", "values": [
      {"measurement": "IC50", "setting": "[1]", "result": "< 50", "unit": "nM"},
      {"measurement": "IC50", "setting": "[2]", "result": "< 50", "unit": "nM"},
      {"measurement": "IC50", "setting": "[3]", "result": "1000 to 20000", "unit": "nM"},
      {"measurement": "IC50", "setting": "[4]", "result": "< 50", "unit": "nM"},
      {"measurement": "IC50", "setting": "[5]", "result": "50 to 1000", "unit": "nM"},
      {"measurement": "IC50", "setting": "[6]", "result": "< 50", "unit": "nM"}
    ]},
    {"smiles": "O=C(NO)[C@H]1CN(S(=O)(=O)c2cccnc2O)CCN1S(=O)(=O)c1cc(F)c(Oc2ccc(Cl)cc2)c(F)c1", "note": "[Entry 45]", "values": [
      {"measurement": "IC50", "setting": "[1]", "result": "50 to 1000", "unit": "nM"},
      {"measurement": "IC50", "setting": "[2]", "result": "< 50", "unit": "nM"},
      {"measurement": "IC50", "setting": "[3]", "result": "1000 to 20000", "unit": "nM"},
      {"measurement": "IC50", "setting": "[4]", "result": "< 50", "unit": "nM"},
      {"measurement": "IC50", "setting": "[5]", "result": "50 to 1000", "unit": "nM"},
      {"measurement": "IC50", "setting": "[6]", "result": "< 50", "unit": "nM"}
    ]},
    {"smiles": "O=C(NO)[C@H]1CN(C(=O)c2cccnc2)CCN1S(=O)(=O)c1cc(F)c(Oc2ccc(Cl)cc2)c(F)c1", "note": "[Entry 59]", "values": [
      {"measurement": "IC50", "setting": "[1]", "result": "50 to 1000", "unit": "nM"},
      {"measurement": "IC50", "setting": "[2]", "result": "< 50", "unit": "nM"},
      {"measurement": "IC50", "setting": "[3]", "result": "1000 to 20000", "unit": "nM"},
      {"measurement": "IC50", "setting": "[4]", "result": "< 50", "unit": "nM"},
      {"measurement": "IC50", "setting": "[5]", "result": "50 to 1000", "unit": "nM"},
      {"measurement": "IC50", "setting": "[6]", "result": "< 50", "unit": "nM"}
    ]},
    {"smiles": "O=C(NO)[C@H]1CN(C(=O)N2CCOCC2)CCN1S(=O)(=O)c1cc(F)c(Oc2ccc(Cl)cc2)c(F)c1", "note": "[Entry 30]", "values": [
      {"measurement": "IC50", "setting": "[7]", "result": "50 to 1000", "unit": "nM"},
      {"measurement": "IC50", "setting": "[1]", "result": "50 to 1000", "unit": "nM"},
      {"measurement": "IC50", "setting": "[2]", "result": "< 50", "unit": "nM"},
      {"measurement": "IC50", "setting": "[3]", "result": "1000 to 20000", "unit": "nM"},
      {"measurement": "IC50", "setting": "[8]", "result": "< 50", "unit": "nM"},
      {"measurement": "IC50", "setting": "[4]", "result": "< 50", "unit": "nM"},
      {"measurement": "IC50", "setting": "[5]", "result": "50 to 1000", "unit": "nM"},
      {"measurement": "IC50", "setting": "[6]", "result": "< 50", "unit": "nM"}
    ]},
    {"smiles": "O=C(NO)[C@H]1CN(S(=O)(=O)NC(=O)N2CCCCC2)CCN1S(=O)(=O)c1cc(F)c(Oc2ccc(Cl)cc2)c(F)c1", "note": "[Entry 37]", "values": [
      {"measurement": "IC50", "setting": "[1]", "result": "< 50", "unit": "nM"},
      {"measurement": "IC50", "setting": "[2]", "result": "< 50", "unit": "nM"},
      {"measurement": "IC50", "setting": "[3]", "result": "1000 to 20000", "unit": "nM"},
      {"measurement": "IC50", "setting": "[4]", "result": "< 50", "unit": "nM"},
      {"measurement": "IC50", "setting": "[5]", "result": "50 to 1000", "unit": "nM"},
      {"measurement": "IC50", "setting": "[6]", "result": "< 50", "unit": "nM"}
    ]},
    {"smiles": "COCCOC(=O)N1CCN(S(=O)(=O)c2cc(F)c(Oc3ccc(Cl)cc3)c(F)c2)[C@@H](C(=O)NO)C1", "note": "[Entry 15]", "values": [
      {"measurement": "IC50", "setting": "[1]", "result": "50 to 1000", "unit": "nM"},
      {"measurement": "IC50", "setting": "[3]", "result": "1000 to 20000", "unit": "nM"},
      {"measurement": "IC50", "setting": "[5]", "result": "50 to 1000", "unit": "nM"}
    ]},
    {"smiles": "O=C(NO)[C@H]1CN(S(=O)(=O)Cc2ccncc2)CCN1S(=O)(=O)c1cc(F)c(Oc2ccc(Cl)cc2)c(F)c1", "note": "[Entry 34]", "values": [
      {"measurement": "IC50", "setting": "[1]", "result": "50 to 1000", "unit": "nM"},
      {"measurement": "IC50", "setting": "[2]", "result": "< 50", "unit": "nM"},
      {"measurement": "IC50", "setting": "[3]", "result": "1000 to 20000", "unit": "nM"},
      {"measurement": "IC50", "setting": "[4]", "result": "< 50", "unit": "nM"},
      {"measurement": "IC50", "setting": "[5]", "result": "< 50", "unit": "nM"},
      {"measurement": "IC50", "setting": "[6]", "result": "< 50", "unit": "nM"}
    ]},
    {"smiles": "O=C(NO)[C@H]1CN(C(=O)C(=O)N2CCOCC2)CCN1S(=O)(=O)c1cc(F)c(Oc2ccc(Cl)cc2)c(F)c1", "note": "[Entry 31]", "values": [
      {"measurement": "IC50", "setting": "[1]", "result": "50 to 1000", "unit": "nM"},
      {"measurement": "IC50", "setting": "[2]", "result": "< 50", "unit": "nM"},
      {"measurement": "IC50", "setting": "[3]", "result": "1000 to 20000", "unit": "nM"},
      {"measurement": "IC50", "setting": "[4]", "result": "< 50", "unit": "nM"},
      {"measurement": "IC50", "setting": "[5]", "result": "50 to 1000", "unit": "nM"},
      {"measurement": "IC50", "setting": "[6]", "result": "< 50", "unit": "nM"}
    ]},
    {"smiles": "CN(C)CCS(=O)(=O)N1CCN(S(=O)(=O)c2cc(F)c(Oc3ccc(Cl)cc3)c(F)c2)[C@@H](C(=O)NO)C1", "note": "[Entry 54]", "values": [
      {"measurement": "IC50", "setting": "[1]", "result": "< 50", "unit": "nM"},
      {"measurement": "IC50", "setting": "[2]", "result": "< 50", "unit": "nM"},
      {"measurement": "IC50", "setting": "[3]", "result": "50 to 1000", "unit": "nM"},
      {"measurement": "IC50", "setting": "[4]", "result": "< 50", "unit": "nM"},
      {"measurement": "IC50", "setting": "[5]", "result": "< 50", "unit": "nM"},
      {"measurement": "IC50", "setting": "[6]", "result": "< 50", "unit": "nM"}
    ]}
  ]
}
